Experiment: molar heat capacity at saturation pressure
Conditions: Small (less than 1 g) adiabatic calorimetry

C=CC(C)(C)O [2-methyl-3-buten-2-ol]
molar heat capacity [J/K/mol]
Conditions	Crystal 1	Crystal 2
88.1 K	61.32	62.25
89.48 K	65.12	–
89.49 K	64.37	–
89.61 K	64.85	–
90 K	62.35	–
90.04 K	63.82	–
90.18 K	63.5	–
90.62 K	63.44	–
90.78 K	63.53	–
90.87 K	63.45	–
91.19 K	63.49	–
91.32 K	63.69	–
91.57 K	63.46	–
91.77 K	63.59	–
91.97 K	63.75	–
92.27 K	63.73	–
92.34 K	63.78	–
92.92 K	64.01	–
92.97 K	64.05	–
93.15 K	64.24	–
93.36 K	64.34	–
93.5 K	64.26	–
93.67 K	64.43	–
94.08 K	64.54	–
94.35 K	64.76	–
94.37 K	64.82	–
94.67 K	64.85	–
95.08 K	65.12	–
95.25 K	65.18	–
95.42 K	65.33	–
95.55 K	65.34	–
96.34 K	65.8	–
96.44 K	65.84	–
96.75 K	65.99	–
97.48 K	66.4	–
97.95 K	66.62	–
98.15 K	66.74	–
98.26 K	66.77	–
99.15 K	67.27	–
99.55 K	67.5	–
99.97 K	67.73	–
100 K	67.72	–
101.8 K	68.7	–
101.81 K	68.72	–
103.63 K	69.68	–
104.26 K	70.06	–
105.46 K	70.68	–
106.72 K	71.41	–
107.3 K	71.7	–
109.14 K	72.73	–
109.18 K	72.79	–
110 K	73.25	–
110.98 K	73.78	–
111.65 K	74.18	–
112.82 K	74.82	–
114.12 K	75.6	–
114.67 K	75.87	–
116.51 K	76.95	–
116.6 K	77.03	–
118.36 K	78.04	–
119.07 K	78.49	–
120 K	78.98	–
120.2 K	79.15	–
121.55 K	79.98	–
122.05 K	80.25	–
123.9 K	81.37	–
124.02 K	81.49	–
125.74 K	82.53	–
126.49 K	83.07	–
127.59 K	83.73	–
128.96 K	84.71	–
129.43 K	85.04	–
130 K	85.52	–
131.26 K	86.38	–
131.43 K	86.54	–
133.1 K	87.73	–
133.88 K	88.39	–
134.93 K	89.13	–
136.33 K	90.2	–
136.76 K	90.46	–
138.58 K	91.75	–
138.78 K	91.98	–
140 K	92.84	–
140.4 K	93.1	–
141.22 K	93.76	–
142.22 K	94.49	–
143.66 K	95.62	–
144.04 K	95.9	–
145.85 K	97.31	–
146.09 K	97.56	–
147.65 K	98.82	–
148.5 K	99.58	–
149.45 K	100.3	–
150 K	100.8	–
150.92 K	101.6	–
151.37 K	102	–
153.32 K	103.8	–
153.4 K	103.9	–
155.42 K	105.7	–
155.71 K	106	–
157.44 K	107.7	–
158.09 K	108.4	–
159.45 K	109.7	–
160 K	110.3	–
160.45 K	110.8	–
161.45 K	111.8	–
162.8 K	113.2	–
163.44 K	113.9	–
165.14 K	115.7	–
165.42 K	116	–
167.39 K	118.2	–
167.47 K	118.3	–

Source: the NIST ThermoML archive (doi:10.1016/j.jct.2015.07.028)
